In US4180588A, “Immunosuppressant” (Mitsubishi Chemical Industries, Ltd., priority 1977, dated 1979):

Tests used:
[1] = test system: Adjuvant arthritis in rats; experiment: Adjuvant arthritis in rats (hind foot volume); type: in vivo, Sprague-Dawley rats; details: day 1 until day 21
Description: Effect of N-(p-hydroxyphenyl)-L-glutamine on Adjuvant arthritis in rats
Sprague-Dawley rats weighing 150 to 180 g were randomized in 6 groups and kept in a controlled evironment for 2 weeks prior to use. They were fed a standard diet and were allowed to drink water freely ad libitum.
On day 0, each rat was injected in the planter region of the right hind paw with 0.05 ml Freund's Complete Adjuvant containing 6 mg/ml of heat killed Mycobacterium butyricum (Difco) in sterile paraffin oil.
The volume of the injected (right) and non-injected (left) feet up to a mark on the tibio-tarsal joint was measured by water over-flow method.
The sensitized rats were dosed subcutaneously from day 1 until day 21 with either 12.5, 25, or 50 mg/kg of N-(p-hydroxyphenyl)-L-glutamine (γ-GHB), 2.5 mg/kg of prednisolone, and vehicle for control group.

human lymphocytes = experiment: Inhibition of blastogenesis of human lymphocytes induced by phytohemagglutinin (PHA), 3H-thymidine uptake; type: cell-based; details: for % Inhibition (3H-thymidine uptake by PHA-stimulated lymphocytes): 72 hours
Description: Inhibition of the blastogenesis of the human lymphocytes induced by phytohemagglutinin (PHA)
1.5×10^5 human lymphocytes in RPMI-1 640 medium (produced by GIBCO) supplemented with 10 wt. % fetal calf serum were incubated with 0.1 μl of PHA and in the presence or absence of N-(p-hydroxyphenyl)-L-glutamine (total volume: 0.1 ml) in a CO2 incubator at 37° C. for 72 hours. 0.1 μCi of ^3 H-thymidine was pulsed 7 hour before harvesting the cells. The lymphocytes were harvested and the radioactivity incorporated into the cells were counted.

Daudi cells = experiment: Growth inhibition of tissue-culture cells (Daudi cells), trypane blue dye exclusion; type: cell-based, human
Description: Growth inhibition of tissue-culture cells
2.6×10^5 /ml tissue culture cells (Daudi cells) derived from human lymphocytes in RPMI-1640 medium supplemented with 10% fetal calf serum were incubated with varied concentration of N-(p-hydroxyphenyl)-L-glutamine for 72 hours at 37° C. The number of live cells was determined by the trypane blue dye exclusion test.

skin allograft = experiment: Prolongation of the skin allograft in rat (Fisher to Wister/MK); type: in vivo; details: 25 mg/kg intraperitoneally everyday from day -7 until rejection; controls 9.0±1.6 days
Description: Prolongation of the skin allograft in rat Wister/MK rats received skin allografts from Fisher rats on day 0.
Recipient rats in the treatment group were administered intraperitoneally 25 mg/kg of N-(p-hydroxyphenyl)-L-glutamine dissolved in a phosphate buffer everyday from day - 7 until the day on which the rejection was observed. Rats treated with the compound rejected their grafts in 15.0±1.7 days, while controls rejected in 9.0±1.6 days.

[2] = test system: plaque forming cells in the spleen; experiment: Plaque forming cells in the spleen of mice immunized with sheep blood cells (modified Cunningham's method); type: in vivo, mice (ddY); details: for PFC (No. of PFC ± S.E.): 5 animals, day 4, untreated 163 ± 64
[3] = test system: nucleated cells in the spleen; experiment: Total number of nucleated cells in the spleen of immunized mice; type: in vivo, mice (ddY); details: for Number of nucleated cells (No. of lymphocytes ± S.E.): 5 animals, day 4, untreated 228 ± 18.8
Description: Effect of N-(p-hydroxyphenyl)-L-glutamine on the total number of nucleated cells and the plaque forming cells in the spleen
The mice (ddY, 18 to 21 g) were intraperitoneally immunized with 1×10^8 sheep blood cells. The N-(p-hydroxyphenyl)-L-glutamine was administered subcutaneously on day 0, 1, 2 and 3. On day 4, the mice were sacrificed and the plaque forming cells in the spleen were determined according to the modified Cunningham's method (H. Fujiwara et al.; Experimental Method of Immunology Vol. 5, 1475 (1975)).
Total number of the nucleated cells in the spleen were counted after lysing erythrocytes with 0.5% acetic acid.

[4] = Acute toxicity (mortality 7 days after intraperitoneal administration); type: in vivo, mice; details: mouse, in vivo, ip, mice, intraperitoneal
Description: (§1) The varied doses of N-(p-hydroxyphenyl)-L-glutamine in an aqueous 5% sodium carboxymethyl cellulose solution were intraperitoneally administered to the mice. The mortality 7 days after the administration was as follows: […]

mice = experiment: as above; type: in vivo
Description: as §1

[5] = Cytotoxic effect on the murine spleen cells, trypane-blue dye exclusion; type: cell-based; details: mouse, spleen cells, 48 hours, 86 at 0
Description: (§2) Cytotoxic effect on the murine spleen cells 1×10^6 /ml murine spleen cells in RPMI-1640 medium supplemented with 5% fetal calf serum were incubated with a varied concentration of N-(p-hydroxyphenyl)-L-glutamine for 48 hours at 37° C. And then the viability of the cells was determined by the trypane-blue dye exclusion test.

murine spleen cells = experiment: as above; type: cell-based; details: within the range of the concentration tested
Description: as §2

[6] = 50 mg/kg subcutaneously on day 0, 1, 2 and 3
[7] = 100 mg/kg subcutaneously on day 0, 1, 2 and 3
[8] = 12.5, 25 or 50 mg/kg subcutaneously

C[C@]12C=CC(=O)C=C1CC[C@@H]1[C@@H]2[C@@H](O)C[C@@]2(C)[C@H]1CC[C@]2(O)C(=O)CO [prednisolone, reference compound]
left (non-injected) hind foot swelling (in words) ([1]; 2.5 mg/kg subcutaneously): reduced significantly
right (injected) hind foot swelling (in words) ([1]; 2.5 mg/kg subcutaneously): reduced significantly

N[C@@H](CCC(=O)Nc1ccc(O)cc1)C(=O)O
inhibition of PHA-induced blastogenesis (in words) (human lymphocytes; 40 μg/ml): complete inhibition
inhibition of PHA-induced blastogenesis, delayed addition (in words) (human lymphocytes; 40 μg/ml added 0, 12, 24 and 48 hours after PHA stimulation): almost complete inhibition
% Inhibition (3H-thymidine uptake by PHA-stimulated lymphocytes) (human lymphocytes; 0.04 μ/ml): 14%
% Inhibition (3H-thymidine uptake by PHA-stimulated lymphocytes) (human lymphocytes; 0.4 μ/ml): 27%
% Inhibition (3H-thymidine uptake by PHA-stimulated lymphocytes) (human lymphocytes; 4 μ/ml): 67%
% Inhibition (3H-thymidine uptake by PHA-stimulated lymphocytes) (human lymphocytes; 40 μ/ml): 99%
inhibition at 40 µg/mL (Daudi cells; Homo sapiens, Daudi, 40 μg/ml): ~90%
live cell growth (% of control) at 400 µg/mL (Daudi cells; Homo sapiens, Daudi, 400 μg/ml, 72 hours, read-out: Inhibition (%) (Control equals 100)): 0%
growth inhibition with delayed addition (in words) (Daudi cells; addition delayed from 24 hours to 48 hours after start of incubation): gradually decreased
growth inhibition with exposure for first 24 hours only (in words) (Daudi cells; present for first 24 hours of 72 hours incubation): did not exhibit any growth inhibition
time to rejection of skin graft (skin allograft): 15.0 ± 1.7 days
production of plaque forming cells (in words) ([2]; 50 mg/kg): significantly inhibited
PFC (No. of PFC ± S.E.) [2, 6]: 65.6 ± 9.5 × 10^3 /spleen
PFC (No. of PFC ± S.E.) [2, 7]: 65.3 ± 14.0 × 10^3 /spleen
total number of the nucleated cells in the spleen (in words) ([3]; 50 mg/kg): did not affect
Number of nucleated cells (No. of lymphocytes ± S.E.) [3, 6]: 176 ± 13.7 × 10^6 /spleen
Number of nucleated cells (No. of lymphocytes ± S.E.) [3, 7]: 226 ± 39.1 × 10^6 /spleen
LD50 at 168 h [4]: > 5000 mg/kg
No. of dead mice/No. of treated mice (mice; 1.768 g/kg intraperitoneally): 0/5
No. of dead mice/No. of treated mice (mice; 2.5 g/kg intraperitoneally): 0/5
No. of dead mice/No. of treated mice (mice; 3.535 g/kg intraperitoneally): 1/5
No. of dead mice/No. of treated mice (mice; 5 g/kg intraperitoneally): 2/5
No. of dead mice/No. of treated mice (mice; 10 g/kg intraperitoneally): 1/1
viability at 48 h ([5]; concentration 10 (unit inferred)): 83%
viability at 48 h ([5]; concentration 100 (unit inferred)): 87%
cytotoxic effect on the murine spleen cells (in words) (murine spleen cells): did not exhibit any cytotoxic effect
left (non-injected) hind foot swelling (in words) [1, 8]: reduced significantly
right (injected) hind foot swelling (in words) [1, 8]: reduced significantly

Sc1ncnc2nc[nH]c12 [6-Mercaptopurine, reference compound]
PFC (No. of PFC ± S.E.) ([2]; 25 mg/kg): 18.8 ± 7.9 × 10^3 /spleen
Number of nucleated cells (No. of lymphocytes ± S.E.) ([3]; 25 mg/kg): 78 ± 9.5 × 10^6 /spleen
